# Entries after “also recorded” stand apart in the source; their conditions may differ.
# Key:
# MeCP2 KO mice = experiment: Nocturnal activity measurements (infrared beam interruptions); format: in vivo, mouse; conditions: for nocturnal locomotor activity, beam interruptions over 10 hours (FIG. 4B): 6 to 17 weeks of age
# Experimental: (1-3)IGF-1 treatment: For the survival measurements, the nocturnal activity analysis and the immunoblot analysis, (1-3) IGF-1 (Bachem Biosciences # H22468) was administered daily via intra-peritoneal injections (0.01 mg/g body weight, vehicle=saline, 0.01% BSA). The treatment was started at P15 and maintained throughout the course of the experiments. For intracellular physiology experiments, the mice were injected daily (0.01 mg/g body weight, vehicle=saline, 0.01% BSA) for 2 weeks, from P15 to P28-P32 when they were used for acute slice preparation. For optical imaging experiments, mice were injected with (1-3) IGF-1 (0.02 mg/g body weight, vehicle=saline, 0.01% BSA) daily from the day of the lid suture to the day of imaging. Slice physiology preparation: Coronal sections (300 μm thick) at or near sensorimotor cortex were cut in <4° C. ACSF using a Vibratome. Slices were incubated at 37° C. for 20 minutes after slicing, and at room temperature for the remainder of the experiment. Slices were transferred to a Warner chamber and recordings were taken from visually identified pyramidal neurons located in layer 5. Artificial cerebral spinal fluid (ACSF) contained 126 mM NaCl, 25 mM NaHCO3, 1 mM NaHPO4, 3 mM KCl, 2 mM MgSO4, 2 mM CaCl2, and 14 mM dextrose, was adjusted to 315-320 mOsm and 7.4 pH, and was bubbled with 95% O2/5% CO2. The intracellular pipette solution contained 100 mM potassium gluconate, 20 mM KCl, 10 mM HEPES, 4 mM MgATP, 0.3 mM NaGTP, and 10 mM Na-phosphocreatine. […] Cells were visualized with an Achroplan 40× water-immersion lens with infrared-DIC optics (Zeiss) and detected with an infrared camera (Hamamatsu) projecting to a video monitor. […] Then in current clamp ˜10 pulses (500 ms, 40-140 pA at 10 pA increments), were applied to quantify evoked firing rates and cellular excitability. […] Analysis was performed using a custom software package written in Matlab, with all events detected according to automated thresholds and blindly verified for each event individually by the experimenter. […]
# Overall brain weight = format: in vivo, mouse; conditions: as a result of knockout and treatment (Discussion)
# [1] = tested on: layer 5 pyramidal neurons in motor cortex of MeCP2 knockout mice; experiment: Golgi staining, dendritic spine density and morphology; format: in vivo, mouse
# BDNF = BDNF expression (mRNA micro-array, proBDNF staining) in V1 during monocular deprivation; format: in vivo, mouse; conditions: mice subjected to MD and treated; vs MD and control
# Experimental: A: Effects of (1-3)IGF-1 (GPE) treatment on the expression levels of BDNF at mRNA level. […] (1-3)IGF-1 treatment is able to increase expression though not to control levels. The RNA levels were obtained with the micro-array analysis described in Tropea et al., 2006. B: Double staining for NeuN (green) and proBDNF (red) antibody. […] Anti-pro BDNF and anti-NeuN were obtained from CHEMICON and used at a concentration of 1:500. The solutions and time of incubations are the following: preincubation in 5% BSA, 0.1% triton, 10% serum, PBS. Incubation with the primary antibodies was carried out at 4 degrees for 3 days in the following solution: 2% BSA, 5% serum, 0.1% triton, PBS. After washings in PBS secondary biotinylated (for pro-BDNF) or Alexa conjugated (for NeuN) antibodies (1:200) were incubated for 2 hours in the same solution of the primary antibodies. The pro-BDNF labeling was detected by adding extravidine tritc (Sigma—1:300). C: Effects of (1-3)IGF-1 (GPE) treatment on the mRNA expression levels of tPA. […] Anti-tPA was purchased from Oxford Biomedical Research and used at a concentration of 1:500. The conditions for incubation were the following: free floating sections were pre-incubated in blocking solution: 10% serum, 0.3% triton, PBS and then left overnight in the primary antibody mix: 1% serum, 0.3% triton, PBS, anti-tPA 1:500, anti Neu-N 1:500. […]
# wild type young mice = conditions: Tropea et al., 2006; cited from earlier work
# MeCP2−/y mice = experiment: Heart rate measurements (real time cardiac pulse rate, tail clip sensor); format: in vivo, mouse; conditions: 8 week old MeCP2−/y mice, treated from P15 (6 weeks), non-anesthetized
# [2] = P28, knockout treated vs knockout and wild-type
smiles,measurement,setting,value
"NCC(=O)N1CCC[C@H]1C(=O)N[C@@H](CCC(=O)O)C(=O)O [(1-3)IGF-1, glycyl-L-prolyl-L-glutamic acid]","nocturnal locomotor activity, beam interruptions over 10 hours (FIG. 4B)","MeCP2 KO mice; MeCP2 KO mice, 0.01 mg/g IP daily from P15, vs vehicle KO",elevated these levels; also recorded: more active than vehicle-treated KO animals (KO) but not as active as WT
same,"nocturnal locomotor activity, beam interruptions over 10 hours (FIG. 4B)",MeCP2 KO mice; wild-type mice treated (WT-T) vs WT,failing to increase activity in wild-type animals; also recorded: not significantly more active than WT
same,"nocturnal locomotor activity, beam interruptions over 10 hours (FIG. 6)","MeCP2 KO mice; young mice, 4 to 5 weeks of age",treatment did not change activity levels
same,overall brain weight,Overall brain weight,small changes were seen
same,over-representation of thin (immature) spines (FIG. 2D),"[1]; P28, knockout treated vs knockout",not ameliorated by the treatment
same,% mushroom (mature) spines (FIG. 2D),[1]; [2],reduced in the knockout compared to wild-type and knockout treated with (1-3)IGF1
same,"dendritic spine density (spines per length of dendrite, FIG. 2C)",[1]; [2],spine densities more similar to wild-type values
same,average dendritic branch thickness (FIG. 2E),"[1]; P28, wild-type, knockout, knockout treated",did not vary
same,BDNF mRNA expression level in contralateral V1 (FIG. 8A),BDNF,"increase expression in animals subjected to MD, though not to control levels"
same,"BDNF protein expression, proBDNF staining (FIG. 8B)",BDNF,"increasing BDNF protein expression, though not to control levels"
same,OD plasticity,wild type young mice,abolish OD plasticity
same,"heart rate distribution / occurrence of irregular, lower heart rate (bradycardia, FIG. 4A)",MeCP2−/y mice,significantly reduced; also recorded: partial rescue of the KO phenotype

# From US7994127B2, “Treatment of rett syndrome” (Massachusetts Institute of Technology, priority 2007, dated 2011)
